The results in this text go back to patent US20110028455A1, “Indole-substituted 3-cyanopyridines As Kinase Inhibitors” (Wyeth LLC, priority 2007, published 2011).

Data set [1] has as its target T1, human PKCθ full length enzyme (Homo sapiens, UniProt Q04759).
T1 construct: human PKCθ full length enzyme (Panvera Cat# P2996); purchased Panvera P2996
As to the kind of experiment: PKCθ IMAP Assay. Format: biochemical. Particulars: PKCθ 1 nM; ATP 6 μM; peptide 100 nM; DMSO 5%; 25 minutes at room temperature; FP readout; read-out: PKC-Theta Mean IC50. As to the method:
The materials used include the following: human PKCθ full length enzyme (Panvera Cat# P2996); substrate peptide: 5FAM-RFARKGSLRQKNV-OH (Molecular Devices, RP7032); ATP (Sigma Cat # A2383); DTT (Pierce, 20291); 5× kinase reaction buffer (Molecular Devices, R7209); 5× binding buffer A (Molecular Devices, R7282), 5× binding buffer B (Molecular Devices, R7209); IMAP Beads (Molecular Devices, R7284); and 384-well plates (Corning Costar, 3710).
The reaction buffer was prepared by diluting the 5× stock reaction buffer and adding DTT to obtain a concentration of 3.0 mM. The binding buffer was prepared by diluting the 5× binding buffer A. A master mix solution was prepared using a 90% dilution of the reaction buffer containing 2×ATP (12 uM) and 2× peptide (200 nm). Compounds were diluted in DMSO to 20× of the maximum concentration for the IC50 measurement. 27 μl of the master mix solution for each IC50 curve was added to the first column in a 384-well plate and 3 μl of 20× compound in DMSO was added to each well.
The final concentration of compound was 2× and 10% DMSO. DMSO was added to the rest of the master mix to increase the concentration to 10%. 10 μl of the master mix containing 10% DMSO was added to the rest of the wells on the plate except the 2nd column. 20 μl was transferred from the first column to the 2nd column. The compounds were serially diluted in 2:1 ratio starting from the 2nd column. A 2×(2 nM) PKCθ solution was made in the reaction buffer. 10 μl of the PKCθ solution was added to every well to achieve these final concentrations: PKCθ-1 nM; ATP-6 μM; peptide-100 nM; DMSO-5%. Samples were incubated for 25 minutes at room temperature. The binding reagent was prepared by diluting the beads in 1× binding buffer to 800:1. 50 μl of the binding reagent was added to every well and incubated for 20 minutes. FP was measured using Envision2100 (PerkinElmer Life Sciences). Wells with no ATP and wells with no enzyme were used as controls.

The nature of data set [2]: Metabolic stability in rat liver microsomes. The settings on record: 30 minutes incubation, remaining compound by HPLC, 6-Me compounds of the invention, read-out: Rat Microsome Stability of 6-Me cyanopyridine Compounds (approximate half life). Type of data set: in vitro ADME. The method, then:
In order to probe the metabolic stability of the compounds of the invention, a series of compounds were selected for stability testing in rat liver microsomes. A DMSO solution of each compound was incubated for 30 minutes in the presence of rat liver homogenate. The percentage of remaining compound was assessed by HPLC. An approximate half life was calculated from the percentage of remaining compound. Table II, below, illustrates a comparison of the in vitro microsomal half life of the selected compounds verses a series of related compounds lacking the C-6 alkyl group. […] It is generally accepted in the industry that improved in vitro metabolic stability frequently translates into improved in vivo metabolic stability. Improved metabolic stability may translate to increased in vivo exposure levels.

T1 sequence (Q04759 whole entry): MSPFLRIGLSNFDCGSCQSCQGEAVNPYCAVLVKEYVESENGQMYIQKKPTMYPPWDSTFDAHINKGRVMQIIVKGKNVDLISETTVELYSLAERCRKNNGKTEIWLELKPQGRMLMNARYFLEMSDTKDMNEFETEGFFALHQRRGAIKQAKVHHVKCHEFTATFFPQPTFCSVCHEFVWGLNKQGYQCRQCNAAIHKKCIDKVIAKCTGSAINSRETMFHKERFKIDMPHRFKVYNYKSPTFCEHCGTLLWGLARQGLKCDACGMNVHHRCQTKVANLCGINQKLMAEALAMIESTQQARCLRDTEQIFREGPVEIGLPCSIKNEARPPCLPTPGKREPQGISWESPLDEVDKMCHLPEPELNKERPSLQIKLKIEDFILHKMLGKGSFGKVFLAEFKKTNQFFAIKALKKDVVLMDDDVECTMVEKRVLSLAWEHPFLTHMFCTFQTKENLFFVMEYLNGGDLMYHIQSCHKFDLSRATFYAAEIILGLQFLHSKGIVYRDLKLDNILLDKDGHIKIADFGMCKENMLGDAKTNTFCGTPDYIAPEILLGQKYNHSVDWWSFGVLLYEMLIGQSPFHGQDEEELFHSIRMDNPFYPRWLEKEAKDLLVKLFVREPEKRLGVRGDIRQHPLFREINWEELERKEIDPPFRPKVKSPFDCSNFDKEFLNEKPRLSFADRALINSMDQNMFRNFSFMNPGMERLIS

Compound `Cc1ncc(C#N)c(Nc2ccc3[nH]ccc3c2C)c1-c1ccc(OCCN2CCN(C)CC2)cc1` [Example 14, 6-methyl-4-[(4-methyl-1H-indol-5-yl)amino]-5-{4-[2-(4-methylpiperazin-1-yl)ethoxy]phenyl}nicotinonitrile] yielded a melting point of 183 to 184 °C. In data set [1], the IC50 stood at 31 nM. Besides, the half-life in data set [2] was greater than 30 min.
`COc1ccc(-c2c(C)ncc(C#N)c2Nc2cccc3[nH]ccc23)cc1OC` [Example 8, 5-(3,4-dimethoxyphenyl)-4-(1H-indol-4-ylamino)-6-methylnicotinonitrile]: the melting point lay in the range of 182 to 183 °C. In addition, the IC50 in data set [1] is 151 nM.
Regarding `Cc1ncc(C#N)c(Nc2cccc3[nH]ccc23)c1-c1ccc(OCCCl)cc1` [Example 13, 5-[4-(2-chloroethoxy)phenyl]-4-(1H-indol-4-ylamino)-6-methylnicotinonitrile], the melting point fell in the range of 185 to 186 °C. The IC50 in data set [1] is 150 nM.
The matching figures for `Cc1ncc(C#N)c(Nc2cccc3[nH]ccc23)c1-c1cc2ccccc2o1` [Example 10, 5-(1-benzofuran-2-yl)-4-(1H-indol-4-ylamino)-6-methylnicotinonitrile]: 192 to 193 °C and 113 nM.
Regarding `Cc1ncc(C#N)c(Nc2ccc3[nH]ccc3c2C)c1-c1cc2ccccc2o1` [Example 11, 5-(1-benzofuran-2-yl)-6-methyl-4-[(4-methyl-1H-indol-5-yl)amino]nicotinonitrile], the melting point lay within 154 to 155 °C. In addition, the IC50 in data set [1] was found to be 13 nM.
